According to patent publication US10653642B2, “Compositions and methods for the treatment of tauopathies” (UNIVERSITY OF SOUTH FLORIDA, priority 2017, dated 2020):

Key:
Type in all cases: cell-based
[1] = test system: tau aggregates; assay: Thioflavin-S staining of tau aggregates in HEK280 cells
Experimental: We examined the effect of hexachlorophene on tau aggregation using thioflavin-S staining. Thioflavin S is a mixture of compounds that results from the methylation of dehydrothiotoluidine with sulfonic acid, and it is used to stain tau aggregates. Upon binding tau aggregates, thioflavin S gives a distinct increase in fluorescence emission. Thioflavin-S staining was performed by incubating HEK280 cells with 0.1% thioflavin-S for 5 min, with or without 1 μM hexachlorophene. Cells were also labelled with a primary rabbit polyclonal Tau Antibody diluted with 5% goat serum and a secondary anti-rabbit antibody labeled with red. Cells containing distinct thioflavin-S signals indicating the presence of aggregated protein were scored in many independent fields containing a total of 500 cells.

[2] = test system: inducible tau; assay: Western blot of tau levels in iHEK280 cells (inducible tau model); conditions: for levels of phosphorylated tau / levels of total tau: 0.5-2.5 μM
Experimental: (§1) It was examined whether hexachlorophene can regulate levels of tau in cellular models. Three different cells lines were treated with hexachlorophene at various different doses. M17 neuroblastoma cells were treated with 1 μM, 2 μM, 3 μM, 5 μM, and 10 μM hexachlorophene. HeLa C3 cells were treated with 0.5 μM, 1 μM, 2 μM, 3 μM, and 5 μM hexachlorophene. iHEK280 cells (an inducible tau model) were treated with 0.5 μM, 1 μM, 1.5 μM, 2 μM, and 2.5 μM hexachlorophene. Cell lysates were analyzed by Western blotting for total tau, phosphorylated tau, and actin (as a control). We also analyzed the effect of hexachlorophene on various pathological forms of tau such as the phosphoserine 396 tau form that localizes to the soluble fraction. Hexachlorophene was purchased from Sigma-Aldrich (St. Louis, Mo.). BE(2) M17 neuroblastoma cells were purchased from ATCC (Manassas, Va.). HeLa C3 cells were generated according to Jinwal et al. (J. Neurosci. 2009, 29, 12079-12088). iHEK cells were generated according to Abisambra et al. (J. Neurosci. 2013, 33, 9498-9507). Neuro-2a (N2a) mouse neuroblastoma cells overexpressing human tau-GFP were generated in house.

[3] = test system: endogenous tau; assay: Western blot of tau levels in M17 neuroblastoma cells
Experimental: as §1

[4] = target: T1, over-expressed tau (Homo sapiens, UniProt P10636); assay: Western blot of tau levels in HeLa C3 cells with over-expressed tau; conditions: for phosphorylated tau levels / total tau levels: 0.5-5 μM
T1 construct: expressed in transfected cells; host or cells: HeLa C3 cells
Experimental: as §1

[5] = test system: human tau-GFP; assay: Western blot of tau in Neuro-2a (N2a) mouse neuroblastoma cells overexpressing human tau-GFP; conditions: nanomolar concentrations, 24 hours
Experimental: as §1
Neuro-2a (N2a) mouse neuroblastoma cells overexpressing human tau-GFP were examined for the effect of hexachlorophene on tau protein using Western blot analysis. […]

[6] = test system: human tau-GFP; assay: Immunofluorescence and confocal microscopy of Neuro-2a cells overexpressing human tau-GFP; conditions: N2a cells, immunofluorescence, 0.1-3 μM, 24 hours
Source text: Neuro-2a (N2a) mouse neuroblastoma cells overexpressing human tau-GFP were examined for the effect of hexachlorophene on tau protein using Western blot analysis. […] Immunofluorescence and confocal microscopy were also used to analyze the effect of hexachlorophene on the cells.

[7] = 24 hours, listed as Hexachlorophene

T1 sequence (P10636 1-383 isoform P10636-6): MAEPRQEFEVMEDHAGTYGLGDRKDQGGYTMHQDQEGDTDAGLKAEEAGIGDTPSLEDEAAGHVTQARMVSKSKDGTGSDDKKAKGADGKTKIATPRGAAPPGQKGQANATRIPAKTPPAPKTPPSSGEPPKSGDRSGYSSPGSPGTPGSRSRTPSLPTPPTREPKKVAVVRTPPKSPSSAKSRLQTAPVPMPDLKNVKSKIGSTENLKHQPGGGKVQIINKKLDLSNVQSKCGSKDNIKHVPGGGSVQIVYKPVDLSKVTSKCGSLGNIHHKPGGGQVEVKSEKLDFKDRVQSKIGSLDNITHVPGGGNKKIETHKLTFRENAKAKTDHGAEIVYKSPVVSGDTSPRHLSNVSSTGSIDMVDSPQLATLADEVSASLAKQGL

Compound: Oc1c(Cl)cc(Cl)c(Cl)c1Cc1c(O)c(Cl)cc(Cl)c1Cl [hexachlorophene]
- tau aggregation (thioflavin-S staining) ([1]; 1 μM): significant reduction
- tau aggregates (thioflavin-S signal) ([1]; 24 hours): reduced
- levels of phosphorylated serine 396 tau in the soluble fraction [2]: decreased
- phosphorylated tau (Pser396) ([2]; 1.5 μM, 24 hours): completely cleared
- total tau ([2]; 1.5 μM, 24 hours): partially cleared
- phosphorylated tau (Pser396) levels ([2]; 2 μM, 24 hours): cleared
- total tau protein ([2]; 2 μM, 24 hours): cleared
- levels of phosphorylated tau ([2]; 24 hours): decreased
- levels of total tau ([2]; 24 hours): decreased
- levels of phosphorylated tau [2, 7]: significantly reduced
- levels of total tau [2, 7]: significantly reduced
- levels of phosphorylated serine 396 tau in the soluble fraction [3]: decreased
- phosphorylated (Pser396) tau proteins ([3]; 10 μM, 24 hours): completely cleared
- levels of endogenous (total) tau ([3]; 1-10 μM, 24 hours): decreased
- phosphorylated form of endogenous tau ([3]; 1-10 μM, 24 hours): significantly reduced
- levels of endogenous (total) tau ([3]; 1-10 μM, 24 hours, listed as Hexachlorophene): significantly reduced
- levels of phosphorylated serine 396 tau in the soluble fraction [4]: decreased
- phosphorylated tau (Pser396) ([4]; 2 μM, 24 hours): completely cleared
- total tau ([4]; 2 μM, 24 hours): partially cleared
- phosphorylated tau levels ([4]; 24 hours): decreased
- total tau levels ([4]; 24 hours): decreased
- phosphorylated tau levels [4, 7]: significantly reduced
- total tau levels [4, 7]: significantly reduced
- phosphorylated tau (Pser396 & Pser199) [5]: reduced
- total tau protein [5]: reduced
- phosphorylated tau (Pser396 and Pser199) [6]: reduced
- total tau protein [6]: reduced
